According to patent US3970648A, “2-[2-(5-Nitro-2-furyl)vinyl]-4-(anilino)quinazolines” (Diamond Shamrock Corporation, priority 1974, dated 1976):

Tests used:
Type in all cases: cell-based
Escherichia coli = experiment: Bactericide test, Escherichia coli (agar streak plate)
Source text: (§1) Test formulations were examined for bactericidal and/or bacteriostatic activity against the test organisms shown in Tables A and B. These organisms were chosen as being representative of commercially important pathogens affecting animal agriculture. The antibiotic chlortetracycline was chosen as a positive control, since it has a broad spectrum of activity against a large number of organisms, and its activity can be used for comparative purposes.
(§2) Basic test formulations of the product of Examples I, II, III, and of chlortetracycline were prepared by dissolving 16 mg (0.016 g) in 2.0 ml of stock emulsifier solution (0.25% Triton X-155 in acetone by volume) and making each solution up to 50 ml with deionized water. The concentration of the test compound in the basic formulation was 320 ppm. Lower concentrations of the test compound were obtained by diluting the basic formulation with a 4% solution of the stock emulsifier in deionized water so that each dilution in the series differed only in test compound content.
(§3) Nutrient-tryptic soy agar (NTA) consisting of 2.0% Difco Bactoagar 0.8% nutrient broth (Difco), and 0.5% tryptic soy broth (Difco) was prepared and sterilized by autoclaving. A 2 ml aliquot of each test formulation was added to 8 ml of molten NTA. This mixture was then plated in a sterile polystyrene petri dish (100 × 15 mm). After the agar was set, suspensions of each of the test organisms were simultaneously streaked onto the surface of the agar. The inoculated plates were incubated for 48 hr at 28°C. The inhibition of growth of each organism was rated by visual comparison with the organism developing on non-treated agar. Growth inhibition reported as per cent control was rated in three categories as follows: 0% control, growth equivalent to that on non-treated agar; 50% control, sparse development and separated colonies; 100% control, no visible growth or development of colonies.
(§4) Test formulations of the product of Example IV were examined for bactericidal and/or bacteriostatic activity against the test organisms shown in Table B using the Bactericide Test described in Example V. The inhibition of organism growth with each diluted test formulation was rated visually by comparison with the organism developing on a non-treated control agar plate. Growth inhibition reported as per cent control was rated in three categories as follows: 0% control, growth equivalent to that on non-treated agar; 50% control is sparse development and separated colonies; and 100% control, development of individual colonies was not apparent.

Staphylococcus aureus = experiment: Bactericide test, Staphylococcus aureus (agar streak plate); settings: Staphylococcus aureus
Source text: as §1, §2, §3, §4

Streptococcus faecalis = experiment: Bactericide test, Streptococcus faecalis (agar streak plate); settings: Enterococcus faecalis
Source text: as §1, §2, §3, §4

Salmonella cholerasuis = experiment: Bactericide test, Salmonella cholerasuis (agar streak plate); settings: Salmonella
Source text: as §1, §2, §3, §4

Salmonella gallinarum = experiment: Bactericide test, Salmonella gallinarum (agar streak plate); settings: Salmonella enterica, GALLINARUM
Source text: as §1, §2, §3, §4

[1] = test system: Erysipelothrix rhusiopathiae; experiment: Bactericide test, Erysipelothrix rhusiopathiae (agar streak plate); settings: Erysipelothrix rhusiopathiae
Source text: as §1, §2, §3

[2] = test system: Bordetella bronchiseptica; experiment: Bactericide test, Bordetella bronchiseptica (agar streak plate); settings: Bordetella bronchiseptica
Source text: as §1, §2, §3

Salmonella typhimurium = experiment: Bactericide test, Salmonella typhimurium (agar streak plate); settings: Salmonella enterica, TYPHIMURIUM
Source text: as §1, §2, §3

Streptococcus agalactiae = experiment: Bactericide test, Streptococcus agalactiae (agar streak plate); settings: Streptococcus agalactiae
Source text: as §1, §2, §3

Streptococcus group E = experiment: Bactericide test, Streptococcus group E (agar streak plate)
Source text: as §1, §2, §3

Vibrio coli = experiment: Bactericide test, Vibrio coli (agar streak plate); settings: Campylobacter coli
Source text: as §1, §2, §3

How did the inhibition at 1 ppm (Escherichia coli) turn out when CN(C)[C@@H]1C(O)=C(C(N)=O)C(=O)[C@@]2(O)C(O)=C3C(=O)c4c(O)ccc(Cl)c4[C@@](C)(O)[C@H]3C[C@@H]12 [Chlortetracycline, reference compound] was run?
The inhibition at 1 ppm was 0%.

And the inhibition at 4 ppm (Escherichia coli)?
The inhibition at 4 ppm was 0%.

And the inhibition at 16 ppm (Escherichia coli)?
Its inhibition at 16 ppm is 100%.

And the inhibition at 64 ppm (Escherichia coli)?
Its inhibition at 64 ppm is 100%.

And the inhibition at 1 ppm (Staphylococcus aureus)?
The inhibition at 1 ppm was 0%.

What about the inhibition at 4 ppm (Staphylococcus aureus) of the same compound?
The inhibition at 4 ppm was 0%.

What about the inhibition at 16 ppm (Staphylococcus aureus) of the same compound?
Its inhibition at 16 ppm is 100%.

And the inhibition at 64 ppm (Staphylococcus aureus)?
Its inhibition at 64 ppm is 100%.

And the inhibition at 1 ppm (Streptococcus faecalis)?
The inhibition at 1 ppm was 100%.

What about the inhibition at 4 ppm (Streptococcus faecalis) of the same compound?
The inhibition at 4 ppm was 100%.

What about the inhibition at 16 ppm (Streptococcus faecalis) of the same compound?
The inhibition at 16 ppm was 100%.

And the inhibition at 64 ppm (Streptococcus faecalis)?
The inhibition at 64 ppm was 100%.

What about the inhibition at 1 ppm (Salmonella cholerasuis) of the same compound?
The inhibition at 1 ppm was 0%.

What about the inhibition at 4 ppm (Salmonella cholerasuis) of the same compound?
The inhibition at 4 ppm was 0%.

And the inhibition at 16 ppm (Salmonella cholerasuis)?
The inhibition at 16 ppm was 100%.

What about the inhibition at 64 ppm (Salmonella cholerasuis) of the same compound?
Its inhibition at 64 ppm is 100%.

And the inhibition at 1 ppm (Salmonella gallinarum; 1 ppm)?
The inhibition at 1 ppm was 0%.

And the inhibition at 4 ppm (Salmonella gallinarum; 4 ppm)?
Its inhibition at 4 ppm is 0%.

What about the inhibition at 16 ppm (Salmonella gallinarum; 16 ppm) of the same compound?
Its inhibition at 16 ppm is 100%.

What about the inhibition at 64 ppm (Salmonella gallinarum; 64 ppm) of the same compound?
Its inhibition at 64 ppm is 100%.

What about the inhibition at 1 ppm ([1]; 1 ppm) of the same compound?
Its inhibition at 1 ppm is 0%.

And the inhibition at 4 ppm ([1]; 4 ppm)?
The inhibition at 4 ppm was 10%.

What about the inhibition at 16 ppm ([1]; 16 ppm) of the same compound?
The inhibition at 16 ppm was 100%.

And the inhibition at 64 ppm ([1]; 64 ppm)?
Its inhibition at 64 ppm is 100%.

And the inhibition at 1 ppm [2]?
Its inhibition at 1 ppm is 0%.

What about the inhibition at 4 ppm [2] of the same compound?
Its inhibition at 4 ppm is 0%.

And the inhibition at 16 ppm [2]?
The inhibition at 16 ppm was 0%.

What about the inhibition at 64 ppm [2] of the same compound?
The inhibition at 64 ppm was 100%.

And the inhibition at 1 ppm (Salmonella typhimurium)?
Its inhibition at 1 ppm is 0%.

And the inhibition at 4 ppm (Salmonella typhimurium)?
Its inhibition at 4 ppm is 0%.

And the inhibition at 16 ppm (Salmonella typhimurium)?
Its inhibition at 16 ppm is 0%.

And the inhibition at 64 ppm (Salmonella typhimurium)?
Its inhibition at 64 ppm is 0%.

And the inhibition at 1 ppm (Streptococcus agalactiae)?
The inhibition at 1 ppm was 0%.

What about the inhibition at 4 ppm (Streptococcus agalactiae) of the same compound?
Its inhibition at 4 ppm is 100%.

What about the inhibition at 16 ppm (Streptococcus agalactiae) of the same compound?
Its inhibition at 16 ppm is 100%.

And the inhibition at 64 ppm (Streptococcus agalactiae)?
Its inhibition at 64 ppm is 100%.

What about the inhibition at 1 ppm (Streptococcus group E) of the same compound?
Its inhibition at 1 ppm is 0%.

What about the inhibition at 4 ppm (Streptococcus group E) of the same compound?
The inhibition at 4 ppm was 0%.

And the inhibition at 16 ppm (Streptococcus group E)?
Its inhibition at 16 ppm is 100%.

And the inhibition at 64 ppm (Streptococcus group E)?
The inhibition at 64 ppm was 100%.

What about the inhibition at 1 ppm (Vibrio coli; 1 ppm) of the same compound?
The inhibition at 1 ppm was 0%.

And the inhibition at 4 ppm (Vibrio coli; 4 ppm)?
Its inhibition at 4 ppm is 100%.

And the inhibition at 16 ppm (Vibrio coli; 16 ppm)?
The inhibition at 16 ppm was 100%.

And the inhibition at 64 ppm (Vibrio coli; 64 ppm)?
Its inhibition at 64 ppm is 100%.
